# Measurements reported in ChEMBL document CHEMBL1130471, “RES-701-1/endothelin-1 hybrid peptide having a potent binding activity for type B receptor” (Bioorg Med Chem Lett, 1997).
# Key:
# Endothelin-1 receptor = biological target: T1, Endothelin-1 receptor (Bos taurus, UniProt P21450); assay: Binding activity to ET-A receptor on bovine lung membrane was determined; type: tissue-based
# T1 sequence (P21450 whole entry): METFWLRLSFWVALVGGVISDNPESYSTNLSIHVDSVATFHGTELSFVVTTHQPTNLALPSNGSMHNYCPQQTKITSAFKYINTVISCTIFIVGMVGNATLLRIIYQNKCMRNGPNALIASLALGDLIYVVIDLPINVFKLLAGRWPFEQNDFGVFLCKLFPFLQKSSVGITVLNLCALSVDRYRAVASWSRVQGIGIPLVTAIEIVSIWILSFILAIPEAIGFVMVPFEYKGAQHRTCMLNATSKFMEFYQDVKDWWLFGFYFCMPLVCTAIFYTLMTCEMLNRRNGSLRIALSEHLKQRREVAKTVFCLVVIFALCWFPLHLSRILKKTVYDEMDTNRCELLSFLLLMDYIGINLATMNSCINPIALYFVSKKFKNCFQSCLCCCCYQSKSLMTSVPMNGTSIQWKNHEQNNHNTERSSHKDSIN
# [1] = biological target: T2, Endothelin receptor type B (Bos taurus, UniProt P28088); assay: Binding activity to ET-B receptor on bovine cerebellum membrane; type: tissue-based
# T2 sequence (P28088 whole entry): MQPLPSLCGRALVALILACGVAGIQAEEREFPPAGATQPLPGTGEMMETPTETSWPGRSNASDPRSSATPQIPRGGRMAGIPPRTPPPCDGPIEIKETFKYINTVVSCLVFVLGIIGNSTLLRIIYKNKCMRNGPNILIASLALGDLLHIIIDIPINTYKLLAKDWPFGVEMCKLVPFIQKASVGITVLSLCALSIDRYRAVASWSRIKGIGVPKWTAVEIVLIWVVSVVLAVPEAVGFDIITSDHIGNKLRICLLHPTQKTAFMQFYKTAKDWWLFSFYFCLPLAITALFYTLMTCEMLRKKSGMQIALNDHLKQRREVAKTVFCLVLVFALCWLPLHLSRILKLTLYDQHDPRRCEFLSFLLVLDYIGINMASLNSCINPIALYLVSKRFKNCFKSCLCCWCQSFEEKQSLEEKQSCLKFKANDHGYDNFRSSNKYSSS
IC50 [1],Compound,IC50 (Endothelin-1 receptor)
–,CC[C@H](C)[C@H](NC(=O)[C@H](CC(=O)O)NC(=O)[C@H](CC(C)C)NC(=O)[C@H](Cc1c[nH]cn1)NC(=O)[C@H](C)NC(=O)[C@H](Cc1ccccc1)NC(=O)[C@H](Cc1ccc(O)cc1)NC(=O)[C@@H](NC(=O)[C@H](Cc1c[nH]c2ccccc12)NC(=O)[C@@H]1CC(=O)NCC(=O)N[C@@H](CC(N)=O)C(=O)N[C@@H](Cc2c[nH]c3ccccc23)C(=O)N[C@@H](Cc2c[nH]cn2)C(=O)NCC(=O)N[C@@H]([C@@H](C)O)C(=O)N[C@@H](C)C(=O)N2CCC[C@H]2C(=O)N1)C(C)C)C(=O)N[C@H](C(=O)N[C@@H](Cc1c[nH]c2ccccc12)C(=O)O)[C@@H](C)CC,> 0.1 µM
–,C[C@@H]1NC(=O)[C@H]([C@@H](C)O)NC(=O)CNC(=O)[C@H](Cc2c[nH]cn2)NC(=O)[C@H](Cc2c[nH]c3ccccc23)NC(=O)[C@H](CC(N)=O)NC(=O)CNC(=O)C[C@@H](C(=O)N[C@@H](Cc2c[nH]c3ccccc23)C(=O)N[C@@H](Cc2ccccc2)C(=O)N[C@@H](Cc2ccccc2)C(=O)N[C@@H](CC(N)=O)C(=O)N[C@@H](Cc2ccc(O)cc2)C(=O)N[C@@H](Cc2ccc(O)cc2)C(=O)N[C@@H](Cc2c[nH]c3ccccc23)C(=O)O)NC(=O)[C@@H]2CCCN2C1=O,> 5 µM
–,CC[C@H](C)[C@H](NC(=O)[C@@H](NC(=O)[C@H](CC(=O)O)NC(=O)[C@H](CCC(N)=O)NC(=O)[C@H](Cc1c[nH]cn1)NC(=O)[C@H](C)NC(=O)[C@H](Cc1ccccc1)NC(=O)[C@H](Cc1ccc(O)cc1)NC(=O)[C@H](CC(C)C)NC(=O)[C@H](Cc1c[nH]c2ccccc12)NC(=O)[C@@H]1CC(=O)NCC(=O)N[C@@H](CC(N)=O)C(=O)N[C@@H](Cc2c[nH]c3ccccc23)C(=O)N[C@@H](Cc2c[nH]cn2)C(=O)NCC(=O)N[C@@H]([C@@H](C)O)C(=O)N[C@@H](C)C(=O)N2CCC[C@H]2C(=O)N1)C(C)C)C(=O)N[C@@H](Cc1c[nH]c2ccccc12)C(=O)O,> 0.1 µM
–,CC[C@H](C)[C@H](NC(=O)[C@H](CC(=O)O)NC(=O)[C@H](CC(C)C)NC(=O)[C@H](Cc1c[nH]cn1)NC(=O)[C@H](C)NC(=O)[C@H](Cc1ccc(O)cc1)NC(=O)[C@H](Cc1ccc(O)cc1)NC(=O)[C@@H](NC(=O)[C@H](Cc1c[nH]c2ccccc12)NC(=O)[C@@H]1CC(=O)NCC(=O)N[C@@H](CC(N)=O)C(=O)N[C@@H](Cc2c[nH]c3ccccc23)C(=O)N[C@@H](Cc2c[nH]cn2)C(=O)NCC(=O)N[C@@H]([C@@H](C)O)C(=O)N[C@@H](C)C(=O)N2CCC[C@H]2C(=O)N1)C(C)C)C(=O)N[C@H](C(=O)N[C@@H](Cc1c[nH]c2ccccc12)C(=O)O)[C@@H](C)CC,> 0.1 µM
5 µM,C[C@H](NC(=O)[C@@H](NC(=O)CNC(=O)[C@H](Cc1c[nH]cn1)NC(=O)[C@H](Cc1c[nH]c2ccccc12)NC(=O)[C@H](CC(N)=O)NC(=O)CN)[C@@H](C)O)C(=O)N1CCC[C@H]1C(=O)N[C@@H](CC(=O)O)C(=O)N[C@@H](Cc1c[nH]c2ccccc12)C(=O)N[C@@H](Cc1ccccc1)C(=O)N[C@@H](Cc1ccccc1)C(=O)N[C@@H](CC(N)=O)C(=O)N[C@@H](Cc1ccc(O)cc1)C(=O)N[C@@H](Cc1ccc(O)cc1)C(=O)N[C@@H](Cc1c[nH]c2ccccc12)C(=O)O,–
3 µM,H-LYFCHQDVIW-OH,–
3 µM,H-VYYCHLDIIW-OH,–
3 µM,H-WFFNYYW-OH,–

Compound,IC50 [1],IC50 (Endothelin-1 receptor)
C[C@@H]1NC(=O)[C@H]([C@@H](C)O)NC(=O)CNC(=O)[C@H](Cc2c[nH]cn2)NC(=O)[C@H](Cc2c[nH]c3ccccc23)NC(=O)[C@H](CC(N)=O)NC(=O)CNC(=O)[C@H](Cc2c[nH]c3ccccc23)NC(=O)[C@H](Cc2ccc(O)cc2)NC(=O)[C@H](Cc2ccc(O)cc2)NC(=O)[C@H](CC(N)=O)NC(=O)[C@H](Cc2ccccc2)NC(=O)[C@H](Cc2ccccc2)NC(=O)[C@H](Cc2c[nH]c3ccccc23)NC(=O)[C@H](CC(=O)O)NC(=O)[C@@H]2CCCN2C1=O,> 5 µM,–
CC[C@H](C)[C@H](NC(=O)[C@H](CC(=O)O)NC(=O)[C@H](CC(C)C)NC(=O)[C@H](Cc1cnc[nH]1)NC(=O)[C@@H]1CSSC[C@H](N)C(=O)N[C@@H](CO)C(=O)N[C@H]2CSSC[C@H](NC(=O)[C@H](CCC(=O)O)NC(=O)[C@H](CCCCN)NC(=O)[C@H](CC(=O)O)NC(=O)[C@H](CCSC)NC(=O)[C@H](CC(C)C)NC(=O)[C@H](CO)NC(=O)[C@H](CO)NC2=O)C(=O)N[C@@H](C(C)C)C(=O)N[C@@H](Cc2ccc(O)cc2)C(=O)N[C@@H](Cc2ccccc2)C(=O)N1)C(=O)N[C@H](C(=O)N[C@@H](Cc1c[nH]c2ccccc12)C(=O)O)[C@@H](C)CC [ENDOTHELIN],1 µM,–
H-VYFSHLDIIW-OH,1 µM,–
